Reference: US20250109132A1, “COMPOUNDS AND METHODS FOR TREATING FRIEDREICH'S ATAXIA” (Design Therapeutics, Inc., priority 2022, published 2025)

test system: human FXN; assay: EC50 Assay: FXN mRNA expression by qRT-PCR in GM15850 cells; type: cell-based; details: GM15850 cell suspension, 48 hrs incubation, hFXN expression normalized to hGAPDH, 5-point 3-fold dose response, read-out: EC50 WT (nM, 48 hr)
Protocol: Cell culture: Cells were cultured in RPMI1640 medium+15% FBS. Cells were maintained at a density between […]. Cells were centrifuged, resuspended in fresh medium, counted and plated at 150,000 cells per well in 100 μL in a non-coated, flat bottom tissue culture plate.
Compound treatment: 10 mM stock solution of FA GeneTAC was diluted 1:10 in DMSO followed by a 1:100 dilution in growth medium. Working solution was then further diluted to 1OX desired final concentration of 150 nM. Compound was then diluted at a 1:3 ratio into growth medium containing 0.01% DMSO. 5-point, 3-fold dose response curve was generated. 11 μL of 10× compound was added to wells containing 100 μL cell suspension of GM15850. 11 μL growth medium containing 0.01% DMSO was added to all wells not treated with FA GeneTAC. Cells were allowed to incubate for 48 hrs prior to cell lysis using guanidine isothiocyanate solution.
RNA isolation: Total RNA was isolated and purified in 384-well column filter plates using chaotropic salt.
qRT-PCR: qRT-PCR reactions were assembled using AgPath-ID reagents (Thermo Fisher) using 6 μL mastermix and 4 μL RNA. qRT-PCR TaqMan primer probe sets against human FXN (Assay ID Hs01075496 ml) and human GAPDH (Assay ID Hs00266705_g1) were used to measure the intended targets. qRT-PCR was run on the ThermoFisher QuantStudio 6 PRO instrument using the manufacturer's recommended cycling conditions.
Data analysis: qPCR data was analyzed using Thermo Fisher Design and Analysis software. Data was exported to Excel and hFXN expression was normalized to hGAPDH expression
A<100 nM; B is 100 nM to 500 nM; C>500 nM.

SMILES | EC50 [nM]
COC(C)(C)c1ccc(Oc2c(C)cc(F)cc2C)c(-c2cn(C)c(=O)c3[nH]c(C(=O)Nc4ccc(OCCOCCOCCOCCOCCOCCOCCOCCOCCNC(=O)CCNC(=O)c5nc(NC(=O)CCNC(=O)c6cc(NC(=O)c7nc(NC(=O)CCNC(=O)c8cc(NC(=O)c9nccn9C)cn8C)cn7C)cn6C)cn5C)cc4)cc23)c1 [Compound 1] | < 100
Cc1cc(F)cc(C)c1Oc1ccc(C(C)(C)O)cc1-c1cn(C)c(=O)c2[nH]c(C(=O)Nc3ccc(OCCOCCOCCOCCOCCOCCOCCOCCOCCNC(=O)CCNC(=O)CCNC(=O)c4nc(NC(=O)CCNC(=O)c5cc(NC(=O)c6nc(NC(=O)CCNC(=O)c7cc(NC(=O)c8nccn8C)cn7C)cn6C)cn5C)cn4C)cc3)cc12 [Compound 10] | < 100
Cc1cc(F)cc(C)c1Oc1ccc(C(C)(C)O)cc1-c1cn(C)c(=O)c2[nH]c(C(=O)Nc3ccc(OCCOCCOCCOCCOCCOCCNC(=O)CCNC(=O)c4nc(NC(=O)CCNC(=O)c5cc(NC(=O)c6nc(NC(=O)CCNC(=O)c7cc(NC(=O)c8nccn8C)cn7C)cn6C)cn5C)cn4C)cc3)cc12 [Compound 11] | < 100
Cc1cc(F)cc(C)c1Oc1ccc(C(C)(C)O)cc1-c1cn(C)c(=O)c2[nH]c(C(=O)NCc3ccc(OCCOCCOCCOCCOCCOCCOCCOCCOCCNC(=O)CCNC(=O)c4nc(NC(=O)CCNC(=O)c5cc(NC(=O)c6nc(NC(=O)CCNC(=O)c7cc(NC(=O)c8nccn8C)cn7C)cn6C)cn5C)cn4C)cc3)cc12 [Compound 6] | < 100
CCNC(=O)c1cc2c(-c3cc(C(C)(C)O)ccc3Oc3c(C)cc(OCCOCCOCCOCCOCCOCCOCCOCCOCCNC(=O)CCNC(=O)c4nc(NC(=O)CCNC(=O)c5cc(NC(=O)c6nc(NC(=O)CCNC(=O)c7cc(NC(=O)c8nccn8C)cn7C)cn6C)cn5C)cn4C)cc3C)cn(C)c(=O)c2[nH]1 [Compound 17] | < 100
Cc1cc(F)cc(C)c1Oc1ccc(C(C)(C)O)cc1-c1cn(C)c(=O)c2[nH]c(C(=O)NCc3cn(CCOCCOCCOCCOCCOCCOCCOCCOCCNC(=O)CCNC(=O)c4nc(NC(=O)CCNC(=O)c5cc(NC(=O)c6nc(NC(=O)CCNC(=O)c7cc(NC(=O)c8nccn8C)cn7C)cn6C)cn5C)cn4C)nn3)cc12 [Compound 5] | < 100
COCCOCCOCCOCCOCCOCCOc1cc(NC(=O)c2cc3c(-c4cc(C(C)(C)O)ccc4Oc4c(C)cc(F)cc4C)cn(C)c(=O)c3[nH]2)ccc1OCCOCCOCCOCCOCCOCCOCCOCCOCCNC(=O)CCNC(=O)c1nc(NC(=O)CCNC(=O)c2cc(NC(=O)c3nc(NC(=O)CCNC(=O)c4cc(NC(=O)c5nccn5C)cn4C)cn3C)cn2C)cn1C [Compound 4] | < 100
CCS(=O)(=O)c1ccc(Oc2c(C)cc(F)cc2C)c(-c2cn(C)c(=O)c3[nH]c(C(=O)Nc4ccc(OCCOCCOCCOCCOCCOCCOCCOCCOCCNC(=O)CCNC(=O)c5nc(NC(=O)CCNC(=O)c6cc(NC(=O)c7nc(NC(=O)CCNC(=O)c8cc(NC(=O)c9nccn9C)cn8C)cn7C)cn6C)cn5C)cc4)cc23)c1 [Compound 3] | < 100
Cc1cc(F)cc(C)c1Oc1ccc(C(C)(C)O)cc1-c1cn(C)c(=O)c2[nH]c(C(=O)Nc3ccc(OCCOCCOCCOCCOCCOCCOCCOCCOCCNC(=O)CCNC(=O)c4nc(NC(=O)CCNC(=O)c5cc(NC(=O)c6nc(NC(=O)CCNC(=O)c7cc(NC(=O)c8nccn8C)cn7C)cn6C)cn5C)cn4C)cc3)cc12 [Compound 15] | < 100
Cc1cc(F)cc(C)c1Oc1ccc(S(C)(=O)=O)cc1-c1cn(C)c(=O)c2[nH]c(C(=O)Nc3ccc(OCCOCCOCCOCCOCCOCCOCCOCCOCCNC(=O)CCNC(=O)c4nc(NC(=O)CCNC(=O)c5cc(NC(=O)c6nc(NC(=O)CCNC(=O)c7cc(NC(=O)c8nccn8C)cn7C)cn6C)cn5C)cn4C)cc3)cc12 [Compound 2] | < 100
Cc1cc(F)cc(C)c1Oc1ccc(C(C)(C)O)cc1-c1cn(C)c(=O)c2[nH]c(C(=O)Nc3ccc(OCCOCCOCCOCCOCCOCCOCCOCCOCCNC(=O)c4nc(NC(=O)CCNC(=O)c5cc(NC(=O)c6nc(NC(=O)CCNC(=O)c7cc(NC(=O)c8nccn8C)c[nH]7)cn6C)c[nH]5)cn4C)cc3)cc12 [Compound 9] | < 100
Cc1cc(F)cc(C)c1Oc1ccc(C(C)(C)O)cc1-c1cn(C)c(=O)c2[nH]c(C(=O)Nc3ccc(OCCOCCOCCOCCOCCOCCOCCOCCOCCNC(=O)CCNC(=O)c4nc(NC(=O)CCNC(=O)c5cc(NC(=O)c6nc(NC(=O)CCNC(=O)c7cc(NC(=O)c8nccn8C)cn7C)cn6C)cn5C)cn4C)c(O)c3)cc12 [Compound 12] | < 100
Cc1cc(F)cc(C)c1Oc1ccc(C(C)(C)O)cc1-c1cn(C)c(=O)c2[nH]c(C(=O)Nc3ccc(OCCOCCOCCOCCOCCOCCOCCOCCOCCNC(=O)c4nc(NC(=O)CCNC(=O)c5cc(NC(=O)c6nc(NC(=O)CCNC(=O)c7cc(NC(=O)c8nccn8C)cn7C)cn6C)cn5C)cn4C)cc3)cc12 [Compound 7] | < 100
